Read-outs that look alike come from different tables or passages of the source. Values belong to the compound of their own block, whether it stands above or below them.
Biological target: T1, Syk (Homo sapiens, UniProt P43405)
T1 construct: purchased Carna Biosciences
Assay: Syk HTRF assay
Type: biochemical
Summary of the method: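 Read-out is the 665 nm/615 nm time-resolved fluorescence ratio after EDTA stop and Eu-anti-phosphotyrosine plus streptavidin-DyLight 647 detection. Reaction ran 1 h at room temperature with start mix of 87.5 μM ATP and 80 nM substrate peptide in pH 7.6 HEPES/MgCl2 buffer.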

[1] = IC50 activity level, read-out: Activity Level
[2] = read-out: Activity Level (Syk HTRF assay IC50)
[3] = activity levels A-D, read-out: Activity Level (IC50 in the Syk HTRF assay)

IC50 [1]: 0.005 to 250 nM
Compound: Cc1n[nH]c2cc(Nc3nc4cccc(C(F)(F)C5COCCO5)n4n3)ccc12 (stereo not drawn) [Example 563, 5-((1,4-dioxan-2-yl)difluoromethyl)-N-(3-methyl-1H-indazol-6-yl)-[1,2,4]triazolo[1,5-a]pyridin-2-amine]

IC50 [1]: 500 to 1000 nM
Compound: Cc1n[nH]c2ncc(Nc3nc4cccc(CC5CCOCC5)n4n3)cc12 [Example 544, 3-methyl-N-(5-((tetrahydro-2H-pyran-4-yl)methyl)-[1,2,4]triazolo[1,5-a]pyridin-2-yl)-1H-pyrazolo[3,4-b]pyridin-5-amine]

IC50 [2]: 0.005 to 250 nM
Compound: CN1Cc2cc(Nc3nc4cccc(N[C@H]5CC[C@@H](O)CC5)n4n3)ccc2C1=O [Example 135, cis-5-(5-(4-hydroxycyclohexylamino)-[1,2,4]triazolo[1,5-a]pyridin-2-ylamino)-2-methylisoindolin-1-one]

IC50 [3]: 500 to 1000 nM
Compound: CNC(=O)c1ccc(Nc2nc3cccc(N[C@H]4CC[C@@H](N)CC4)n3n2)cc1 [Example 360, 4-(5-(cis-4-aminocyclohexylamino)-[1,2,4]triazolo[1,5-a]pyridin-2-ylamino)-N-methylbenzamide]

IC50 [1]: 0.005 to 250 nM
Compound: Nc1noc2ccc(-c3cccc4nc(Nc5ccccc5)nn34)cc12 [Example 457, 5-(2-(phenylamino)-[1,2,4]triazolo[1,5-a]pyridin-5-yl)benzo[d]isoxazol-3-amine]

IC50 [3]: 0.005 to 250 nM
Compound: Cc1n[nH]c2cc(Nc3nc4cccc(C[C@H]5CC[C@@H](O)CC5)n4n3)ccc12 [Example 239, cis-4-((2-(3-methyl-1H-indazol-6-ylamino)-[1,2,4]triazolo[1,5-a]pyridin-5-yl)methyl)cyclohexanol]

IC50 [3]: 1000 to 10000 nM
Compound: CC(C)Nc1cccc2nc(Nc3ccc(C(F)(F)F)cc3)nn12 [Example 330, N^5-isopropyl-N^2-(4-(trifluoromethyl)phenyl)-[1,2,4]triazolo[1,5-a]pyridin-2,5-diamine]

IC50 [1]: 250 to 500 nM
Compound: OC(c1cccnc1)c1cccc2nc(Nc3ccccc3)nn12 (stereo not drawn) [Example 501, (2-(phenylamino)-[1,2,4]triazolo[1,5-a]pyridin-5-yl)(pyridin-3-yl)methanol]

IC50 [2]: 0.005 to 250 nM
Compound: Oc1cccc(-c2cccc3nc(Nc4ccccc4)nn23)c1 [Example 92]

IC50 [1]: 0.005 to 250 nM
Compound: Cc1ccc(Nc2nc3cccc(N[C@H]4CC[C@@H](O)CC4)n3n2)cn1 [Example 403, cis-4-(2-(6-methylpyridin-3-ylamino)-[1,2,4]triazolo[1,5-a]pyridin-5-ylamino)cyclohexanol]

IC50 [3]: 1000 to 10000 nM
Compound: OCC1CCCN1Cc1cccc2nc(Nc3ccc(C(F)(F)F)cc3)nn12 (stereo in doubt) [Example 272, (R)-(1-((2-(4-(trifluoromethyl)phenylamino)-[1,2,4]triazolo[1,5-a]pyridin-5-yl)methyl)pyrrolidin-2-yl)methanol]

IC50 [3]: 500 to 1000 nM
Compound: CNC(=O)c1ccc(Nc2nc3cccc(N4CC[C@H](O)C4)n3n2)cc1 [Example 249, (S)-4-(5-(3-hydroxypyrrolidin-1-yl)-[1,2,4]triazolo[1,5-a]pyridin-2-ylamino)-N-methylbenzamide]

IC50 [2]: 0.005 to 250 nM
Compound: Cn1ncc2ccc(Nc3nc4cccc(-c5cccc(O)c5)n4n3)cc21 [compound 19]

IC50 [1]: 250 to 500 nM
Compound: c1cc(N[C@@H]2CCCNC2)n2nc(Nc3ccc4nn[nH]c4c3)nc2c1 [Example 455, (R)-N^2-(1H-benzo[d][1,2,3]triazol-6-yl)-N^5-(piperidin-3-yl)-[1,2,4]triazolo[1,5-a]pyridine-2,5-diamine]

IC50 [2]: 0.005 to 250 nM
Compound: c1ccc(-c2cccc3nc(Nc4ccc5nn[nH]c5c4)nn23)cc1 [compound 49, N-(5-phenyl-[1,2,4]triazolo[1,5-a]pyridin-2-yl)-1H-benzo[d][1,2,3]triazol-6-amine]

IC50 [3]: 250 to 500 nM
Compound: CN(C)c1ccc(Nc2nc3cccc(N[C@H]4CC[C@@H](O)CC4)n3n2)cn1 [Example 392, cis-4-(2-(6-(dimethylamino)pyridin-3-ylamino)-[1,2,4]triazolo[1,5-a]pyridin-5-ylamino)cyclohexanol]

IC50 [1]: 1000 to 10000 nM
Compound: CNC(=O)c1ccc(Nc2nc3cccc(NC4CCOCC4)n3n2)cc1 [Example 456, N-methyl-4-(5-(tetrahydro-2H-pyran-4-ylamino)-[1,2,4]triazolo[1,5-a]pyridin-2-ylamino)benzamide]

IC50 [2]: 0.005 to 250 nM
Compound: CC1(C)C(=O)Nc2cc(Nc3nc4cccc(NC5CCOCC5)n4n3)ccc21 [Example 177, 3,3-dimethyl-6-(5-(tetrahydro-2H-pyran-4-ylamino)-[1,2,4]triazolo[1,5-a]pyridin-2-ylamino)indolin-2-one]

IC50 [1]: 0.005 to 250 nM
Compound: c1cc(N[C@H]2CCCNC2)n2nc(Nc3ccc4nn[nH]c4c3)nc2c1 [Example 454, (S)-N^2-(1H-benzo[d][1,2,3]triazol-6-yl)-N^5-(piperidin-3-yl)-[1,2,4]triazolo[1,5-a]pyridine-2,5-diamine]

IC50 [3]: 1000 to 10000 nM
Compound: OC1CCCN(Cc2cccc3nc(Nc4ccc(C(F)(F)F)cc4)nn23)C1 (stereo in doubt) [Example 299, (R)-1-((2-(4-(trifluoromethyl)phenylamino)-[1,2,4]triazolo[1,5-a]pyridin-5-yl)methyl)piperidin-3-ol]

IC50 [1]: 0.005 to 250 nM
Compound: Cn1ncc2cc(Nc3nc4cccc(CC5CCOCC5)n4n3)ccc21 [Example 550, N-(1-methyl-1H-indazol-5-yl)-5-((tetrahydro-2H-pyran-4-yl)methyl)-[1,2,4]triazolo[1,5-a]pyridin-2-amine]

IC50 [3]: 1000 to 10000 nM
Compound: CNC(=O)c1ccc(Nc2nc3cccc(N[C@H]4CC[C@H](O)CC4)n3n2)cc1 (stereo in doubt) [Example 387, trans-4-(5-(4-hydroxycyclohexylamino)-[1,2,4]triazolo[1,5-a]pyridin-2-ylamino)-N-methylbenzamide]

IC50 [1]: 0.005 to 250 nM
Compound: CN(C)c1cccc2nc(Nc3ccc4c(c3)NC(=O)C4(C)C)nn12 [Example 566, 6-(5-(dimethylamino)-[1,2,4]triazolo[1,5-a]pyridin-2-ylamino)-3,3-dimethylindolin-2-one]

Second part, the compound before the results:

Compound: CC(=O)N1CCc2cc(Nc3nc4cccc(-c5ccccc5)n4n3)ccc21 [compound 60, 1-(5-(5-phenyl-[1,2,4]triazolo[1,5-a]pyridin-2-ylamino)indolin-1-yl)ethanone]
IC50 [2]: 0.005 to 250 nM

Compound: Oc1ccc(Nc2nc3cccc(-c4ccccc4)n3n2)cn1 [compound 70, 5-(5-phenyl-[1,2,4]triazolo[1,5-a]pyridin-2-ylamino)pyridine-2-ol]
IC50 [2]: 1000 to 10000 nM

Compound: NC(=O)c1cccc(Cc2cccc3nc(Nc4ccccc4)nn23)c1 [Example 442, 3-((2-(phenylamino)-[1,2,4]triazolo[1,5-a]pyridin-5-yl)methyl)benzamide]
IC50 [1]: 250 to 500 nM

Compound: O[C@H]1CC[C@@H](Nc2cccc3nc(Nc4ccnc(NCCN5CCCC5)c4)nn23)CC1 [Example 278, cis-4-(2-(2-(2-(pyrrolidin-1-yl)ethylamino)pyridin-4-ylamino)-[1,2,4]triazolo[1,5-a]pyridin-5-ylamino)cyclohexanol]
IC50 [3]: 0.005 to 250 nM

Compound: NCCOc1cc(Nc2nc3cccc(NC4CCCNC4)n3n2)ccn1 (stereo in doubt) [Example 404, (S)-N^2-(2-(2-aminoethoxy)pyridin-4-yl)-N^5-(piperidin-3-yl)-[1,2,4]triazolo[1,5-a]pyridine-2,5-diamine]
IC50 [1]: 0.005 to 250 nM

Compound: NC(=O)c1ccc(Nc2nc3cccc(N[C@H]4CC[C@@H](O)CC4)n3n2)cc1 [Example 429, cis-4-(5-(4-hydroxycyclohexylamino)-[1,2,4]triazolo[1,5-a]pyridin-2-ylamino)benzamide]
IC50 [1]: 0.005 to 250 nM

Compound: CCn1nc(C)c2ccc(Nc3nc4cccc(N[C@H]5CC[C@@H](O)CC5)n4n3)cc21 [Example 197, cis-4-(2-(1-ethyl-3-methyl-1H-indazol-6-ylamino)-[1,2,4]triazolo[1,5-a]pyridin-5-ylamino)cyclohexanol]
IC50 [2]: 0.005 to 250 nM

Compound: CC1(C)C(=O)Nc2cc(Nc3nc4cccc(CN5CCNC(=O)C5)n4n3)ccc21 [Example 172, 3,3-dimethyl-6-(5-((3-oxopiperazin-1-yl)methyl)-[1,2,4]triazolo[1,5-a]pyridin-2-ylamino)indolin-2-one]
IC50 [2]: 0.005 to 250 nM

Compound: Nc1n[nH]c2cc(-c3cccc4nc(Nc5ccccc5)nn34)ccc12 [Example 439, 5-(3-amino-1H-indazol-6-yl)-N-phenyl-[1,2,4]triazolo[1,5-a]pyridin-2-amine]
IC50 [1]: 0.005 to 250 nM

Compound: OC(c1cccc2nc(Nc3ccccc3)nn12)C1CCNCC1 (stereo not drawn) [Example 502, (2-(phenylamino)-[1,2,4]triazolo[1,5-a]pyridin-5-yl)(piperidin-4-yl)methanol]
IC50 [1]: 250 to 500 nM

Compound: OC[C@@H](Nc1cccc2nc(Nc3ccc(C(F)(F)F)cc3)nn12)c1ccccc1 [Example 413, (S)-2-phenyl-2-(2-(4-(trifluoromethyl)phenylamino)-[1,2,4]triazolo[1,5-a]pyridin-5-ylamino)ethanol]
IC50 [1]: 1000 to 10000 nM

Compound: OC(Cc1cccc2nc(Nc3ccc(F)cc3)nn12)C1CCNCC1 (stereo not drawn) [Example 425, 2-(2-(4-fluorophenylamino)-[1,2,4]triazolo[1,5-a]pyridin-5-yl)-1-(piperidin-4-yl)ethanol]
IC50 [1]: 1000 to 10000 nM

Compound: Nc1noc2ccc(Nc3nc4cccc(-c5ccccc5)n4n3)cc12 [compound 42]
IC50 [2]: 0.005 to 250 nM

Compound: NC(=O)c1ccc(Nc2nc3cccc(N[C@H]4CCCNC4)n3n2)cc1 [Example 483, (S)-4-(5-(piperidin-3-ylamino)-[1,2,4]triazolo[1,5-a]pyridin-2-ylamino)benzamide]
IC50 [1]: 0.005 to 250 nM

Compound: COCCN1Cc2cc(Nc3nc4cccc(N[C@H]5CC[C@@H](O)CC5)n4n3)ccc2C1=O [Example 174, cis-5-(5-(4-hydroxycyclohexylamino)-[1,2,4]triazolo[1,5-a]pyridin-2-ylamino)-2-(2-methoxyethyl)isoindolin-1-one]
IC50 [2]: 0.005 to 250 nM

Compound: OCc1nc2ccc(-c3cccc4nc(Nc5ccc(C(F)(F)F)cc5)nn34)cc2[nH]1 [Example 409, (6-(2-(4-(trifluoromethyl)phenylamino)-[1,2,4]triazolo[1,5-a]pyridin-5-yl)-1H-benzo[d]imidazol-2-yl)methanol]
IC50 [1]: 0.005 to 250 nM
